We go through 17 molecules from patent US20220033407A1, “N-(pyridin-2-ylsulfonyl)cyclopropanecarboxamide Derivatives and their Use in the Treatment of Disease” (NOVARTIS AG, priority 2018, published 2022).

The target in the test is T1, delF508-CFTR-HRP (Homo sapiens, UniProt P13569, DEL508-508).
T1 construct: expressed in transfected cells
Nature of the test: Measurement of delF508-CFTR-HRP surface expression in CFBE41o- cells (HRP luminescence).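 For DelF508-CFTR-HRP Amax %: percent efficacy relative to a reference CFTR corrector compound.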 Format: cell-based. The note with it: for Emax: CFBE41o-, read-out: DelF508-CFTR-HRP Amax %; for EC50: mean of at least two replicates. Summed up:
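Stably transfected CFBE41o- cells carrying HRP in the fourth extracellular loop of delF508-CFTR, induced with 500 ng/mL doxycycline for 48 h, then compound-treated 24 h at 37° C (10-point, 3-fold, top 10 μM). Surface HRP detected by luminescent substrate; EC50 from logistic fit, triplicates, normalized to lowest-concentration median.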

Molecules are shown by their SMILES.

T1 sequence (P13569 with tags, fused parts or gaps DEL508-508): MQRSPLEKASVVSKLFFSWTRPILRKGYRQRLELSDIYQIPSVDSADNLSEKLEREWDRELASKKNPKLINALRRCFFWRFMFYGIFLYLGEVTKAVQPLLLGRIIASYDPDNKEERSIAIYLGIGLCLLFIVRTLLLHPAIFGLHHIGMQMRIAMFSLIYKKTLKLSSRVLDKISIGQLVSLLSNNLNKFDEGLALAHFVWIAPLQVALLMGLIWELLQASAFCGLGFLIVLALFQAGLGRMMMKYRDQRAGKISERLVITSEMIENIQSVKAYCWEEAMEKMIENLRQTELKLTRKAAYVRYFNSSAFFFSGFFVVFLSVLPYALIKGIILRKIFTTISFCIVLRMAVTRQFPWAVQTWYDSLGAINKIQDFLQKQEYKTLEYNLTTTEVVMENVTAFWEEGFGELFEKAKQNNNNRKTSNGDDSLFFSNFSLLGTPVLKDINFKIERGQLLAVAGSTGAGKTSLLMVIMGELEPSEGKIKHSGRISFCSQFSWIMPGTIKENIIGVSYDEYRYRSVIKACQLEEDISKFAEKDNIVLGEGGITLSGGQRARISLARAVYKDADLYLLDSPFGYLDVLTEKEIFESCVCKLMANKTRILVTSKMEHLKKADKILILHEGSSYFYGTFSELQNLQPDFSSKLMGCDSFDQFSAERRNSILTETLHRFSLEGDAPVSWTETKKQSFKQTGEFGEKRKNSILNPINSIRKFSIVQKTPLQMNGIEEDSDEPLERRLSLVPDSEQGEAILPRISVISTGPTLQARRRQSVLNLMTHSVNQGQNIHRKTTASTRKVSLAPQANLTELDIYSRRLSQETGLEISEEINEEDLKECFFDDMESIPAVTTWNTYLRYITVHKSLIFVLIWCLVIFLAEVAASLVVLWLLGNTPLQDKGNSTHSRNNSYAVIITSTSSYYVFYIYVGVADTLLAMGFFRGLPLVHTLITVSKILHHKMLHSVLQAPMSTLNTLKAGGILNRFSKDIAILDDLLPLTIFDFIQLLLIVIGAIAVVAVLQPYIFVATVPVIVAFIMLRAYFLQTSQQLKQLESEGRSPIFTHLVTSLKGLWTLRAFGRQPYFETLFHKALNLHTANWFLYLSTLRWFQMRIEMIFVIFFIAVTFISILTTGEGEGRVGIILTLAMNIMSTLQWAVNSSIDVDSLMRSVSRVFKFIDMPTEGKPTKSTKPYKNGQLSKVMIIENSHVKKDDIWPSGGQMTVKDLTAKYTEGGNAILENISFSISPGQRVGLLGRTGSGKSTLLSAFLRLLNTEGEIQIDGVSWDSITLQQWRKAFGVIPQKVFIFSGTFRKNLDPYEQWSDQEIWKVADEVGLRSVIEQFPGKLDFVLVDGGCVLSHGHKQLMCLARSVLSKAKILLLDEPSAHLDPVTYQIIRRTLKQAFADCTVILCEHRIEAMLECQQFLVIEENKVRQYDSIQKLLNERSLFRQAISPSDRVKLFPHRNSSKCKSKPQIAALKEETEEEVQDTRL

For the molecule `CC1(C)CCN(c2ccc(Cl)cc2OC2(C(=O)NS(=O)(=O)c3cccc(N4CCC5(CC4)OCc4ccccc45)n3)CC2)CC1` [Example 10-8, N-((6-(3H-spiro[isobenzofuran-1,4′-piperidin]-1′-yl)pyridin-2-yl)sulfonyl)-1-(5-chloro-2-(4,4-dimethylpiperidin-1-yl)phenoxy)cyclopropanecarboxamide], the Emax was determined as 307% and the EC50 (usually the concentration needed to bring the measured effect to its halfway point) was 0.43 µM.
Regarding `O=C(NS(=O)(=O)c1cccc(N2CC[C@H](O)C2)n1)C1(Oc2cc(Cl)ccc2N2CCC3(CC2)CC3)CC1` [Example 9-9, (S)-1-(5-Chloro-2-(6-azaspiro[2.5]octan-6-yl)phenoxy)-N-((6-(3-hydroxypyrrolidin-1-yl)pyridin-2-yl)sulfonyl)cyclopropanecarboxamide], the EC50 came out at 1.65 µM.
For `O=C(NS(=O)(=O)c1cccc(N2CCC(O)(C(F)(F)F)CC2)n1)C1(Oc2cc(Cl)ccc2N2CCC3(CC2)CC3)CC1` [Example 9-31, 1-(5-Chloro-2-(6-azaspiro[2.5]octan-6-yl)phenoxy)-N-((6-(4-hydroxy-4-(trifluoromethyl)piperidin-1-yl)pyridin-2-yl)sulfonyl)cyclopropanecarboxamide], the Emax is 553% and the concentration for a half-maximal effect (EC50) was 0.41 µM.
`Cc1ccc(OCC(C)C)c(OC2(C(=O)NS(=O)(=O)c3cccc(N4CC[C@H](O)C4)n3)CC2)c1` [Example 6-15, (S)—N-((6-(3-hydroxypyrrolidin-1-yl)pyridin-2-yl)sulfonyl)-1-(2-isobutoxy-5-methylphenoxy)cyclopropanecarboxamide]: the Emax is 215% and the response was half-maximal at 2.94 µM (EC50).
On to `COC(=O)C(C)(C)CN1CCN(c2cccc(S(=O)(=O)NC(=O)C3(Oc4cc(C)ccc4C4CCCCC4)CC3)n2)CC1` [Example 2-38, Methyl 3-(4-(6-(N-(1-(2-cyclohexyl-5-methylphenoxy)cyclopropanecarbonyl)sulfamoyl)pyridin-2-yl)piperazin-1-yl)-2,2-dimethylpropanoate], for which the Emax worked out at 293% and the EC50 turned out to be 0.36 µM.
`CC1(O)CCN(c2cccc(S(=O)(=O)NC(=O)C3(Oc4cc(Cl)ccc4C4CC5(CCC5)C4)CCCC3)n2)C1` (single isomer, unassigned) [Example 7-18-2, 1-(5-Chloro-2-(spiro[3.3]heptan-2-yl)phenoxy)-N-((6-(3-hydroxy-3-methylpyrrolidin-1-yl)pyridin-2-yl)sulfonyl)cyclopentane-1-carboxamide]: the “DelF508-CFTR-HRP Amax %” value was determined as 371.9% and a half-maximal response (EC50) required 1.67 µM.
With `Cc1ccc(C2CC3(CCC3)C2)c(OC2(C(=O)NS(=O)(=O)c3cccc(N4CC[C@H](O)C4)n3)CC2)c1` [Example 4-19, (S)-N-((6-(3-Hydroxypyrrolidin-1-yl)pyridin-2-yl)sulfonyl)-1-(5-methyl-2-(spiro[3.3]heptan-2-yl)phenoxy)cyclopropane-1-carboxamide], the Emax worked out at 626% and the EC50 was determined as 1.09 µM.
Turning to `CC1(O)CCCN(c2cccc(S(=O)(=O)NC(=O)C3(Oc4cc(Cl)ccc4C4CC5(CCC5)C4)CC3)n2)C1` (single isomer, unassigned) [Example 7-8-2, 1-(5-chloro-2-(spiro[3.3]heptan-2-yl)phenoxy)-N-((6-(3-hydroxy-3-methylpiperidin-1-yl)pyridin-2-yl)sulfonyl)cyclopropanecarboxamide], the “DelF508-CFTR-HRP Amax %” value turned out to be 248.0% and the response was half-maximal at 1.02 µM (EC50).
Turning to `CC1(O)CCN(c2cccc(S(=O)(=O)NC(=O)C3(Oc4cc(Cl)ccc4C4CC5(CCC5)C4)CCCC3)n2)C1` (single isomer, unassigned) [Example 7-18-1, 1-(5-Chloro-2-(spiro[3.3]heptan-2-yl)phenoxy)-N-((6-(3-hydroxy-3-methylpyrrolidin-1-yl)pyridin-2-yl)sulfonyl)cyclopentane-1-carboxamide], the “DelF508-CFTR-HRP Amax %” value is given as 493.9% and the EC50 was determined as 0.9 µM.
For the molecule `CC(C)(C)C1CCC(Nc2ccc(Cl)cc2OC2(C(=O)NS(=O)(=O)c3cccc(N4CC[C@H](O)C4)n3)CC2)CC1` (single isomer, unassigned) [Example 9-5-2], the “DelF508-CFTR-HRP Amax %” value came out at 678.4% and it took 0.33 µM to reach a half-maximal effect (EC50).
Consider `O=C(NS(=O)(=O)c1cccc(N2CC[C@@H](O)C2)n1)C1(Oc2cc(Cl)ccc2N2CCC3(CC2)CC3)CC1` [Example 9-29, (R)-1-(5-Chloro-2-(6-azaspiro[2.5]octan-6-yl)phenoxy)-N-((6-(3-hydroxypyrrolidin-1-yl)pyridin-2-yl)sulfonyl)cyclopropanecarboxamide], for which the Emax is 691% and the EC50 came to 0.95 µM.
Take `Cc1ccc(-c2cc(C(F)(F)F)ccn2)c(OC2(C(=O)NS(=O)(=O)c3cccc(N4CC[C@H](O)C4)n3)CC2)c1` [Example 5-13, (S)—N-((6-(3-Hydroxypyrrolidin-1-yl)pyridin-2-yl)sulfonyl)-1-(5-methyl-2-(4-(trifluoromethyl)pyridin-2-yl)phenoxy)cyclopropane-1-carboxamide]: the Emax came out at 513% and the midpoint of the response, the EC50, lay at 2.08 µM.
As to `O=C(NS(=O)(=O)c1cccc(N2CC[C@H](O)C2)n1)C1(Oc2cc(C(F)(F)F)ccc2N2CC3(CCC3)C2)CC1` [Example 9-25, (S)-1-(2-(2-Azaspiro[3.3]heptan-2-yl)-5-(trifluoromethyl)phenoxy)-N-((6-(3-hydroxypyrrolidin-1-yl)pyridin-2-yl)sulfonyl)cyclopropanecarboxamide], the Emax was determined as 408% and the EC50 amounted to 1.76 µM.
For `Cc1ccc(OC2CCCC2)c(OC2(C(=O)NS(=O)(=O)c3cccc(N4CCC(C)(C#N)CC4)n3)CC2)c1` [Example 6-2, N-((6-(4-cyano-4-methylpiperidin-1-yl)pyridin-2-yl)sulfonyl)-1-(2-(cyclopentyloxy)-5-methylphenoxy)cyclopropanecarboxamide], in that order: 289% and 2.18 µM.
For `C[C@]1(O)CCN(c2cccc(S(=O)(=O)NC(=O)C3(Oc4cc(Cl)ccc4N4CCC5(CC4)CC5)CC3)n2)C1` [Example 9-28, (S)-1-(5-Chloro-2-(6-azaspiro[2.5]octan-6-yl)phenoxy)-N-((6-(3-hydroxy-3-methylpyrrolidin-1-yl)pyridin-2-yl)sulfonyl)cyclopropanecarboxamide], the Emax was 755% and the EC50 was found to be 0.55 µM.
Turning to `CC(C)(C)C1CCN(c2ccc(Cl)cc2OC2(C(=O)NS(=O)(=O)c3cccc(N4CC[C@H](O)C4)n3)CC2)CC1` [Example 9-34, (S)-1-(2-(4-(Tert-butyl)piperidin-1-yl)-5-chlorophenoxy)-N-((6-(3-hydroxypyrrolidin-1-yl)pyridin-2-yl)sulfonyl)cyclopropanecarboxamide], the Emax was determined as 152% and a half-maximal response (EC50) required 0.91 µM.
Consider `Cc1ccc(C2CCCCC2)c(OC2(C(=O)NS(=O)(=O)c3cccc(N4CCC5(CCCC5N)CC4)n3)CC2)c1` (single isomer, unassigned) [Example 2-32-2, N-((6-(1-Amino-8-azaspiro[4.5]decan-8-yl)pyridin-2-yl)sulfonyl)-1-(2-cyclohexyl-5-methylphenoxy)cyclopropanecarboxamide], for which the “DelF508-CFTR-HRP Amax %” value is 283% and a half-maximal effect (EC50) was put at 1.9 µM.
